Seven compounds from patent publication US8067337B2, “Agricultural chemical composition” (priority 2004, dated 2011) can be followed below.

Format in all cases: in vivo
In series [1] the test system is rice seeds (variety of Kinmaze). As to the kind of experiment: Root length of germinated rice seeds grown on gelled culture medium containing herbicidal compound A1 and a benzoic acid compound. The settings on record: herbicidal compound A1 0.15 ppm, benzoic acid compound 2 ppm; after 7 days at 25° C.; percentage relative to untreated area. The procedure:
Brine-sorted rice seeds (variety of Kinmaze) were soaked in a 0.5% aqueous solution of sodium hypochlorite for 10 minutes followed by washing in running water for 30 minutes and then kept at 30° C. for 36 hours to cause germination for obtaining germinated seeds. Separately, 0.3 part of gellan gum was dissolved in 100 parts of an aqueous solution of salts for Hoagland's No. 2 culture medium (a product by Sigma Co.). 13 Glass vials of 2 cm internal diameter and 5 cm height were each filled with 15 ml of the solution to which 2-[(4,6-dimethoxypyrimidin-2-yl)hydroxymethyl]-6-methoxymethyl-N-difluoromethane-sulfonylanilide (hereinafter referred to as the herbicidal compound A1) and a variety of the benzoic acid compounds indicated in Table 1 were added to make up concentrations of 0.15 ppm and 2 ppm, respectively, and kept standing to cause gelation of the solutions in the glass vial to prepare a culture medium containing the inventive composition (hereinafter referred to as the inventive culture medium). […]
Germinated seeds were grown in the same manner as in Example 1, except for not adding a benzoic acid compound to the inventive culture medium. After seven days, the lengths of the roots were measured.

The subject of series [2] is Rice (Kinmaze). Put plainly: Rice seedlings at second leaf stage grown in liquid culture medium with herbicidal compound A1 and benzoic acid compounds. The settings on record: herbicidal compound A1 0.1 ppm, benzoic acid compound 3 or 1 ppm (Table 2); after 14 days. As to the method: The test culture media were prepared by adding, in advance, to a 25% aqueous solution of salts for Murashige & Skoog culture medium (a product of Wako Pure Chemical Industries, Ltd.), the herbicidal compound A1 and various benzoic acid compounds indicated in Table 2 to make up a concentration of 0.1 ppm and the concentrations shown in Table 2, respectively. Fifty ml each of the resulting test culture media were dispensed into a 50 ml Erlenmeyer flask to prepare various liquid culture media. Similarly, the same amount of the 25% aqueous solution of salts for Murashige & Skoog culture medium was added to the above-mentioned flask to prepare a liquid culture medium (hereinafter referred to as the untreated culture medium). Rice (Kinmaze) grown to the second leaf stage in culture soil for raising seedlings was soaked in these culture media, with the root cut off except for a 2 cm-long part thereof, and was grown in a growth chamber under the conditions of 25° C. with the lighting period of 16 hours, and the dark period of 8 hours to measure the plant length of rice, the length of the root and the living masses of the above-ground part and the root after 14 days or, namely, after lapse of 14 cycles.
Rice was grown in the same manner as in Example 14, except for not adding a benzoic acid compound. After 14 days, the plant length of rice, the length of the root, and the living masses of the above-ground part and the root were measured.

In series [3] the test system is Rice (Kinmaze). As to the kind of experiment: Rice seedlings at second leaf stage grown in liquid culture medium with various herbicidal compounds and p-(t-butyl)benzoic acid. The conditions noted are these: herbicidal compound at ppm of Table 3, with or without p-(t-butyl)benzoic acid 3 ppm; after 14 days. As to the method: The test media were prepared by adding, in advance, to a 25% aqueous solution of salts for Murashige & Skoog culture medium (a product by Wako Pure Chemical Industries, Ltd.), various herbicidal compounds indicated in Table 3 and p-(t-butyl)benzoic acid to make up concentrations indicated in Table 3 and a concentration of 3 ppm, respectively. Fifty ml each of the resulting test culture media were dispensed into a 50 ml Erlenmeyer flask to prepare various liquid culture media. Similarly, a liquid culture medium with a herbicidal compound and a benzoic acid compound not added was prepared. Rice (Kinmaze) grown to the second leaf stage in culture soil for raising seedlings was soaked in these culture media, with the root cut off except for a 2 cm-long part thereof, and was grown in a growth chamber (manufactured by SANYO Electric Co., Ltd.) under the conditions of 25° C. with the lighting period of 16 hours, and the dark period of 8 hours to measure the plant length of rice, the length of the root, and the living masses of the above-ground part and the root after 14 days.
Rice was grown in the same manner as in each of Examples 21 to 25, except for not adding a benzoic acid compound to the culture medium. After 14 days, the plant length of rice, the length of the root, and the living masses of the above-ground part and the root were measured.

With `COCc1cccc(C(O)c2nc(OC)cc(OC)n2)c1NS(=O)(=O)C(F)F` (stereo not shown) [Comparative Example 1, 2-[(4,6-dimethoxypyrimidin-2-yl)hydroxymethyl]-6-methoxymethyl-N-difluoromethane-sulfonylanilide], in series [1], the “Length of root (%)” value stood at 21%.

With `COCc1cccc(C(O)c2nc(OC)cc(OC)n2)c1NS(=O)(=O)C(F)F` (stereo not shown) [Comparative Example 2, 2-[(4,6-dimethoxypyrimidin-2-yl)hydroxymethyl]-6-methoxymethyl-N-difluoromethane-sulfonylanilide], in series [2], the Length of root amounted to 2.1 cm, the “Living mass Above-ground part” value is listed as 0.16 g, the “Living mass Root” value worked out at 0.07 g and the Plant length was 15.6 cm.

With `COC(=O)c1ccccc1CS(=O)(=O)NC(=O)Nc1nc(OC)cc(OC)n1` [compound 3, Bensulfuron-methyl], in series [3], the “Living mass Above-ground part” value came out at 0.11 g and the “Living mass Root” value is listed as 0.05 g.

Regarding `CCOC(=O)c1cnn(C)c1S(=O)(=O)NC(=O)Nc1nc(OC)cc(OC)n1` [compound 4, Pyrazosulfuron-ethyl], in series [3], the Length of root is on record as 2.0 cm, the “Living mass Above-ground part” value is listed as 0.07 g, the “Living mass Root” value is reported as 0.04 g and the Plant length came out at 11.7 cm.

Regarding `CCCCOCN(C(=O)CCl)c1c(CC)cccc1CC` [compound 5, Butachlor], in series [3], the “Living mass Above-ground part” value was found to be 0.14 g and the “Living mass Root” value was found to be 0.09 g.

As to `CCN(CC)C(=O)SCc1ccc(Cl)cc1` [compound 6, Thiobencarb], in series [3], the “Living mass Above-ground part” value came to 0.23 g and the “Living mass Root” value is 0.18 g.

For `CCN(C(=O)n1nnn(-c2ccccc2Cl)c1=O)C1CCCCC1` [compound 7, Fentrazamide], in series [3], the Length of root turned out to be 2.2 cm, the “Living mass Above-ground part” value is reported as 0.08 g, the “Living mass Root” value is 0.05 g and the Plant length is 11.6 cm.
